Format in all cases: in vivo
One assay deals with Norepinephrine. Kind of assay: Combined Apomorphine, Tryptamine and Norepinephrine (ATN) test in rats: norepinephrine part. The note with it: Rattus norvegicus; read-out: Combined ATN test in rats ED₅₀ values (NOR). As to the method:
(§1) Int. Pharmacodyn. Ther., 227, 238-253, 1977. Further the activity of the subject compounds as serotonin antagonists is evidenced by the experimental data obtained in the "Gastric Lesions induced by compound 48/80 in rats" test, described in U.S.-4,335,127. […] All tests were carried out following the procedures described in the cited references and the experimental data are shown in Table 8.

The subject of assay [1] is compound 48/80. Nature of the assay: Protection of Rats from compound 48/80 induced lethality (antihistaminic activity). The conditions noted are these: Rattus norvegicus, read-out: Compound 48/80 tests ED₅₀ values Lethality. As to the method:
as §1

In another assay the test system is Tryptamine. Kind of assay: Combined Apomorphine, Tryptamine and Norepinephrine (ATN) test in rats: tryptamine part. The conditions noted are these: Rattus norvegicus.
Assay [2] relates to compound 48/80. Kind of assay: Gastric Lesions induced by compound 48/80 in rats (serotonin antagonism). The conditions noted are these: Rattus norvegicus, read-out: Compound 48/80 tests ED₅₀ values Gastric lesions. As to the method: as §1
A further assay has as its system Apomorphine. Nature of the assay: Combined Apomorphine, Tryptamine and Norepinephrine (ATN) test in rats: apomorphine part. The note with it: Rattus norvegicus; read-out: Combined ATN test in rats ED₅₀ values (APO).
[3] abbreviates: convulsions, read-out: Combined ATN test in rats ED₅₀ values (TRY) convulsions.
Setting [4] is: hyperaemia, read-out: Combined ATN test in rats ED₅₀ values (TRY) hyperaemia.

ED50 data for eight compounds are collected here from patent EP0378255B1, “2-Aminopyrimidinone derivatives” (JANSSEN PHARMACEUTICA N.V., priority 1989, dated 1990).

Read-outs that look alike come from different tables or passages of the source.

As to `Cc1nc2n(c(=O)c1CCN1CCN(c3noc4ccccc34)CC1)CCN2C` [Compound 115], the ED50 was 1.25 mg/kg in the assay with Norepinephrine; 0.04 mg/kg with compound 48/80 [1]; 0.31 mg/kg in the assay on Tryptamine (setting [3]); 0.005 mg/kg in the assay with Tryptamine (setting [4]); 0.02 mg/kg with compound 48/80 [2]; 0.08 mg/kg in the assay on Apomorphine.
Turning to `Cc1nc2n(C)ccn2c(=O)c1CCN1CCN(c2nsc3ccccc23)CC1` [Compound 124], the ED50 was determined as 5 mg/kg in the assay on Norepinephrine; 0.31 mg/kg in the assay with compound 48/80 [1]; 0.02 mg/kg in the assay with Tryptamine (setting [3]); 0.00125 mg/kg in the assay with Tryptamine (setting [4]); 0.04 mg/kg with compound 48/80 [2]; 0.08 mg/kg with Apomorphine.
Turning to `Cc1nc2n(C)nc(C)n2c(=O)c1CCN1CCN(c2noc3ccccc23)CC1` [Compound 113], the ED50 with Norepinephrine turned out to be 1.25 mg/kg; in the assay on Tryptamine (setting [3]) it was 0.31 mg/kg; in the assay with Tryptamine (setting [4]) it was 0.005 mg/kg; in the assay with compound 48/80 [2] it was 0.08 mg/kg; in the assay on Apomorphine it was 0.08 mg/kg.
Regarding `Cc1nc2n(C)ncn2c(=O)c1CCN1CCC(c2noc3cc(F)ccc23)CC1` [Compound 89], the ED50 in the assay on Norepinephrine was 0.31 mg/kg; with compound 48/80 [1], 0.02 mg/kg; in the assay with Tryptamine (setting [3]), 0.08 mg/kg; in the assay on Tryptamine (setting [4]), at most 0.0025 mg/kg; in the assay with compound 48/80 [2], 0.16 mg/kg; in the assay on Apomorphine, 0.08 mg/kg.
In the case of `CCCNc1nc(C)c(CCN2CCN(c3nsc4ccccc34)CC2)c(=O)n1C` [Compound 71], the ED50 amounted to 1.25 mg/kg in the assay with Norepinephrine; 0.16 mg/kg in the assay on compound 48/80 [1]; 0.08 mg/kg with Tryptamine (setting [3]); 0.005 mg/kg with Tryptamine (setting [4]); 0.63 mg/kg in the assay on compound 48/80 [2]; 0.08 mg/kg in the assay with Apomorphine.
With `Cc1nc2n(C)ccn2c(=O)c1CCN1CCC(c2noc3cc(F)ccc23)CC1` [Compound 77], the ED50 in the assay on Norepinephrine was 0.16 mg/kg; with compound 48/80 [1], 0.005 mg/kg; in the assay with Tryptamine (setting [3]), 0.04 mg/kg; with Tryptamine (setting [4]), at most 0.00063 mg/kg; with compound 48/80 [2], 0.04 mg/kg; with Apomorphine, 0.04 mg/kg.
As to `Cc1nc(NCc2ccccn2)n(C)c(=O)c1CCN1CCC(c2noc3cc(F)ccc23)CC1` [Compound 19], the ED50 was determined as 0.08 mg/kg in the assay with Norepinephrine; 0.31 mg/kg with Tryptamine (setting [3]); 0.0025 mg/kg with Tryptamine (setting [4]); 0.04 mg/kg in the assay with compound 48/80 [2]; 0.08 mg/kg in the assay on Apomorphine.
For the compound `CC1=NN(C)c2nc(C)c(CCN3CCN(c4noc5ccccc45)CC3)c(=O)n2C1` [Compound 112], the ED50 came to 0.63 mg/kg with Norepinephrine; 0.16 mg/kg with compound 48/80 [1]; 0.31 mg/kg with Tryptamine (setting [3]); 0.005 mg/kg in the assay with Tryptamine (setting [4]); 0.04 mg/kg in the assay on compound 48/80 [2]; 0.08 mg/kg in the assay with Apomorphine.
